Source: patent US8008303B2, “Biphenyl derivatives and their use in treating hepatitis C” (AstraZeneca AB, priority 2005, dated 2011)
Read-outs that look alike come from different tables or passages of the source.

Columns and labels:
[1] = system: HCV replicon cells Huh 9B; assay: HCV replicon assay (luciferase readout); assay type: cell-based
In short: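 Compounds, made up at twice final strength (final DMSO 1%), were added to subgenomic replicon cells one day after plating. Incubation then ran 72 h at 37 °C, 5% CO2, without G418. Replication was quantified as firefly luciferase luminescence in lysed cells, with cytotoxicity assessed on a duplicate clear plate.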

[2] = system: HCV replicon cells Huh 9B; assay type: cell-based
[3] = Hepatitis C virus, 72 h, concentration reducing replicon level (luciferase activity) by 50% vs untreated cell control, 72 h incubation
[4] = concentration reducing total cell area by 50% relative to DMSO controls, methylene blue, absorbance 620 nm, 72 h incubation

Structure (SMILES)	IC50 [1, 3] [µM]	TD50 [2, 4]	IC50 ([1]; concentration reducing replicon level (luciferase activity) by 50% vs untreated cell control, 72 h incubation) [µM]	IC50 [1] [µM]	TD50 [2]
Cc1ccc(C(=O)Nc2ccc(N3CCOCC3)cc2)cc1-c1ccc(NC(=O)c2ccccc2O)cc1 [Example 109, 4′-(2-Hydroxy-benzoylamino)-6-methyl-biphenyl-3-carboxylic acid (4-morpholin-4-yl-phenyl)-amide]	1 to 5	* (* < 50 μM)			
COc1ccc(C(=O)Nc2ccc(-c3cc(C(=O)Nc4ccc(N5CCOCC5)cc4)ccc3C)cc2)cc1OC [Example 110, 4′-(3,4-Dimethoxy-benzoylamino)-6-methyl-biphenyl-3-carboxylic acid (4-morpholin-4-yl-phenyl)-amide]	1 to 5	** (** > 50 μM)			
Cc1ccc(C(=O)Nc2ccc(N3CCOCC3)cc2)cc1-c1ccc(NC(=O)c2cnccc2C(F)(F)F)cc1 [Example 111, N-[2′-Methyl-5′-(4-morpholin-4-yl-phenylcarbamoyl) -biphenyl-4-yl]-4-trifluoromethyl-nicotinamide]	> 5	** (** > 50 μM)			
COc1cccc(C(=O)Nc2ccc(-c3cc(C(=O)Nc4ccc(N5CCOCC5)cc4)ccc3C)cc2)c1 [Example 112, 4′-(3-Methoxy-benzoylamino)-6-methyl-biphenyl-3-carboxylic acid (4-morpholin-4-yl-phenyl)-amide]		* (* < 50 μM)	1 to 5		
Cc1cc(NC(=O)C2CC2)ccc1-c1cccc(C(=O)Nc2ccc(N3CCOCC3)cc2)c1 [Example 113, 4′-(Cyclopropanecarbonyl-amino)-2′-methyl-biphenyl-3-carboxylic acid (4-morpholin-4-yl-phenyl)-amide]	> 5	* (* < 50 μM)			
Cc1cc(NC(=O)c2ccco2)ccc1-c1cccc(C(=O)Nc2ccc(N3CCOCC3)cc2)c1 [Example 114, Furan-2-carboxylic acid [2-methyl-3′-(4-morpholin-4-yl-phenylcarbamoyl)-biphenyl-4-yl]-amide]	> 5	* (* < 50 μM)			
COc1ccccc1C(=O)Nc1ccc(-c2cccc(C(=O)Nc3ccc(N4CCOCC4)cc3)c2)c(C)c1 [Example 115, 4′-(2-Methoxy-benzoylamino)-2′-methyl-biphenyl-3-carboxylic acid (4-morpholin-4-yl-phenyl)-amide]	1 to 5	* (* < 50 μM)			
COc1cccc(C(=O)Nc2ccc(-c3cccc(C(=O)Nc4ccc(N5CCOCC5)cc4)c3)c(C)c2)c1 [Example 116, 4′-(3-Methoxy-benzoylamino)-2′-methyl-biphenyl-3-carboxylic acid (4-morpholin-4-yl-phenyl)-amide]	1 to 5	* (* < 50 μM)			
Cc1ccc(C(=O)Nc2ccc(N3CCOCC3)cc2)cc1-c1ccc(NC(=O)c2ccc(CN(C)C)cc2)cc1 [Example 117, 4′-(4-Dimethylaminomethyl-benzoylamino)-6-methyl-biphenyl-3-carboxylic acid (4-morpholin-4-yl-phenyl)-amide]	1 to 5	* (* < 50 μM)			
Cc1ccc(C(=O)Nc2ccc(N3CCOCC3)cc2)cc1-c1ccc(NC(=O)c2ccc(CN3CCOCC3)cc2)cc1 [Example 118, 6-Methyl-4′-(4-morpholin-4-ylmethyl-benzoylamino)-biphenyl-3-carboxylic acid (4-morpholin-4-yl-phenyl)-amide]	> 5	* (* < 50 μM)			
Cc1ccc(C(=O)Nc2ccc(N3CCOCC3)cc2)cc1-c1ccc(NC(=O)c2ccc(N3CCOCC3)cc2)cc1 [Example 119, 6-Methyl-4′-(4-morpholin-4-yl-benzoylamino)-biphenyl-3-carboxylic acid (4-morpholin-4-yl-phenyl)-amide]	1 to 5	** (** > 50 μM)			
O=C(Nc1ccc(CN2CCS(=O)(=O)CC2)cc1)c1ccc(-c2cccc(C(=O)Nc3ccc(N4CCOCC4)cc3)c2)cc1 [Example 120, Biphenyl-3,4′-dicarboxylic acid 4′-{[4-(1,1-dioxo-1lambda*6 *-thiomorpholin-4-ylmethyl)-phenyl]-amide} 3-[(4-morpholin-4-yl-phenyl)-amide]]				1 to 5	** (key: * < 50 μM; ** > 50 μM)
Cc1ccc(C(=O)NC2CC2)cc1-c1ccc(C(=O)Nc2ccc(CN3CCS(=O)(=O)CC3)cc2)cc1 [Example 121, 6-Methyl-biphenyl-3,4′-dicarboxylic acid 3-cyclopropylamide 4′-{[4-(1,1-dioxo-1lambda*6*-thiomorpholin-4-ylmethyl)-phenyl]-amide}]				1 to 5	* (key: * < 50 μM; ** > 50 μM)
Cc1ccc(C(=O)NCCC(C)C)cc1-c1ccc(C(=O)Nc2ccc(CN3CCS(=O)(=O)CC3)cc2)cc1 [Example 122, 6-Methyl-biphenyl-3,4′-dicarboxylic acid 4′-{[4-(1,1-dioxo-1lambda*6*-thiomorpholin-4-ylmethyl)-phenyl]-amide} 3-[(3-methyl-butyl)-amide]]				< 1	* (key: * < 50 μM; ** > 50 μM)
Cc1ccc(C(=O)NCc2cccc(F)c2)cc1-c1ccc(C(=O)Nc2ccc(CN3CCS(=O)(=O)CC3)cc2)cc1 [Example 123, 6-Methyl-biphenyl-3,4′-dicarboxylic acid 4′-{[4-(1,1-dioxo-1lambda*6*-thiomorpholin-4-ylmethyl)-phenyl]-amide} 3-(3-fluoro-benzylamide)]				< 1	* (key: * < 50 μM; ** > 50 μM)
Cc1ccc(C(=O)NCC2CCCO2)cc1-c1ccc(C(=O)Nc2ccc(CN3CCS(=O)(=O)CC3)cc2)cc1 (stereo not shown) [Example 124, 6-Methyl-biphenyl-3,4′-dicarboxylic acid 4′-{[4-(1,1-dioxo-1lambda*6*-thiomorpholin-4-ylmethyl)-phenyl]-amide} 3-[(tetrahydro-furan-2-ylmethyl)-amide]]				1 to 5	* (key: * < 50 μM; ** > 50 μM)
Cc1ccc(C(=O)NCCN2CCCCC2)cc1-c1ccc(C(=O)Nc2ccc(CN3CCS(=O)(=O)CC3)cc2)cc1 [Example 125, 6-Methyl-biphenyl-3,4′-dicarboxylic acid 4′-{[4-(1,1-dioxo-1lambda*6*-thiomorpholin-4-ylmethyl)-phenyl]-amide} 3-[(2-piperidin-1-yl-ethyl)-amide]]				1 to 5	* (key: * < 50 μM; ** > 50 μM)
COCCNC(=O)c1ccc(C)c(-c2ccc(C(=O)Nc3ccc(CN4CCS(=O)(=O)CC4)cc3)cc2)c1 [Example 126, 6-Methyl-biphenyl-3,4′-dicarboxylic acid 4′-{[4-(1,1-dioxo-1lambda*6*-thiomorpholin-4-ylmethyl)-phenyl]-amide} 3-[(2-methoxy-ethyl)-amide]]				1 to 5	* (key: * < 50 μM; ** > 50 μM)
Cc1ccc(C(=O)NCCc2cnc[nH]2)cc1-c1ccc(C(=O)Nc2ccc(CN3CCS(=O)(=O)CC3)cc2)cc1 [Example 127, 6-Methyl-biphenyl-3,4′-dicarboxylic acid 4′-{[4-(1,1-dioxo-1lambda*6*-thiomorpholin-4-ylmethyl)-phenyl]-amide} 3-{[2-(3H-imidazol-4-yl) -ethyl]-amide}]				1 to 5	* (key: * < 50 μM; ** > 50 μM)
Cc1ccc(C(=O)N2CCC(N3CCCC3)CC2)cc1-c1ccc(C(=O)Nc2ccc(CN3CCS(=O)(=O)CC3)cc2)cc1 [Example 128, 2′-Methyl-5′-(4-pyrrolidin-1-yl-piperidine-1-carbonyl) -biphenyl-4-carboxylic acid [4-(1,1-dioxo-1lambda*6*-thiomorpholin-4-ylmethyl)-phenyl]-amide]	1 to 5	* (* < 50 μM)			
